The data set has as its target ATP-dependent translocase ABCB1 (Mus musculus, UniProt P21447). Kind of data set: TP_TRANSPORTER: in situ brain perfusion in mdr1a(-/-) mouse. Conditions: in vivo. The class given is functional, organism-based.

Each structure is given as a SMILES string.

Chain of ATP-dependent translocase ABCB1 (P21447 whole entry, the tested form may be a part): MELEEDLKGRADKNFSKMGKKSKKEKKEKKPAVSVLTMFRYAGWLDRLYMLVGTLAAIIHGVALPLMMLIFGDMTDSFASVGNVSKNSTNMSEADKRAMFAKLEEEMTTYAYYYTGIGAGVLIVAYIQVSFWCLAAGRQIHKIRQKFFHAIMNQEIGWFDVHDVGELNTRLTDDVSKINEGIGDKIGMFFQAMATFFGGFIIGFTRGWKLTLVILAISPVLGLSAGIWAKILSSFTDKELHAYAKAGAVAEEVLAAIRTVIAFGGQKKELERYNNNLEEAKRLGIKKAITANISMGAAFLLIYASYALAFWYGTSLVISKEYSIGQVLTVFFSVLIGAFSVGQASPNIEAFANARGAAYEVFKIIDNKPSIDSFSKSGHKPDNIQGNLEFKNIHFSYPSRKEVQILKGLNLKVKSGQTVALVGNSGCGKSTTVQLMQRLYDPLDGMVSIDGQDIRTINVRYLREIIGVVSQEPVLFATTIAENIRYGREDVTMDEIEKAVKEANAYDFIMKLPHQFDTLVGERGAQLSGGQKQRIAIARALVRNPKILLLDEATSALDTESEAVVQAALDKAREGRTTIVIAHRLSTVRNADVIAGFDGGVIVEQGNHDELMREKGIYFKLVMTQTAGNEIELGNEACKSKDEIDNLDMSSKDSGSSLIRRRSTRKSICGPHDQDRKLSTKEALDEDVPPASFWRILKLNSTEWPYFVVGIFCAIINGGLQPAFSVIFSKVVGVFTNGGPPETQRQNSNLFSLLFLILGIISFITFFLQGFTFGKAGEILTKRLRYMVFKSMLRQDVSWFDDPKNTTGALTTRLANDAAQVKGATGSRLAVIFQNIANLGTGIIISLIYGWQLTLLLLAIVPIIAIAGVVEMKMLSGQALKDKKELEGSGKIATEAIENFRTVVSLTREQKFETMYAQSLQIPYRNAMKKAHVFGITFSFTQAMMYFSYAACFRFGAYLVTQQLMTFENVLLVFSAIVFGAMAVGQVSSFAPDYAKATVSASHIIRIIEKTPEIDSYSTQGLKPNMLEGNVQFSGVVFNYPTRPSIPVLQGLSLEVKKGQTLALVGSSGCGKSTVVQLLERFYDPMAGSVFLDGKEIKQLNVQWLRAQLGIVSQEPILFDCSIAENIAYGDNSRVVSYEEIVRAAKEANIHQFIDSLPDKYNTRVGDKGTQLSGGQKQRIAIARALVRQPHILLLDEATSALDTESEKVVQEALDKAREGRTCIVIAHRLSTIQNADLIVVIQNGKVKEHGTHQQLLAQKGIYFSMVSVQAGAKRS

As for `CC1(C)SSC(C)(C)[C@@H](NC(=O)[C@@H](N)Cc2ccc(O)cc2)C(=O)NCC(=O)N[C@@H](Cc2ccccc2)C(=O)N[C@H]1C(=O)O`, the Activity result is “substrate [+]”.

These data come from ChEMBL document CHEMBL2074509, “Uptake and efflux of the peptidic delta-opioid receptor agonist” (Neurosci Lett, 2001).
